According to patent US20080269510A1, “New alpha-glucosidase inhibitors and antibacterial compounds from Myrtus communis L” (priority 2005, published 2008):

Experiments:
[1] = test system: Shigella flexneri; experiment: Antibacterial screening, agar well diffusion; settings: 100 μL of 3 mg/3 ml DMSO sample per 6-mm well, 37° C., 24 h
[2] = test system: Pseudomonas aeruginosa; experiment: Antibacterial screening, agar well diffusion; format: cell-based; settings: for Inhibition zone, PA (Pseudomonas aeruginosa): 100 μL of 3 mg/3 ml DMSO sample per 6-mm well, 37° C., 24 h
Description: (§1) As a negative control, DMSO was used.

[3] = test system: Staphylococcus aureus; experiment: Antibacterial screening, agar well diffusion; format: cell-based; settings: for Inhibition zone, SA (Staphylococcus aureus): 100 μL of 3 mg/3 ml DMSO sample per 6-mm well, 37° C., 24 h
Description: as §1

[4] = test system: Bacillus subtilis; experiment: Antibacterial screening, agar well diffusion; format: cell-based; settings: 100 μL of 3 mg/3 ml DMSO sample per 6-mm well, 37° C., 24 h
Description: as §1

[5] = test system: Escherichia coli; experiment: Antibacterial screening, agar well diffusion; format: cell-based; settings: 100 μL of 3 mg/3 ml DMSO sample per 6-mm well, 37° C., 24 h
Description: as §1

[6] = test system: Salmonella typhi; experiment: Antibacterial screening, agar well diffusion; format: cell-based; settings: for Inhibition zone, ST (Salmonella typhi): 100 μL of 3 mg/3 ml DMSO sample per 6-mm well, 37° C., 24 h
[7] = target: α-Glucosidase (E.C.3.2.1.20); experiment: α-Glucosidase enzyme inhibition assay (PNP-G substrate, spectrophotometric); format: biochemical; settings: for IC50: pH 6.9, 37° C., 0.7 mM PNP-G, 500 m units/mL enzyme, read-out: α-glucosidase inhibitory activity IC50; for α-glucosidase inhibition (in words): compared with standards acarbose and deoxynojirimycin
Procedure: α-Glucosidase (E.C.3.2.1.20) enzyme inhibition assay has been performed according to the slightly modified method of Matsui et al., (Matsui T., Yoshimoto C., Osajima K., Oki T., and Osajima Y., Biosci. Biotech. Biochem., 1996, 60, 2019-2022). α-Glucosidase (E.C.3.2.1.20) from Saccharomyces species, purchased commercially (Wako 076-02841; Wako Pure Chemical Industries Ltd., 1-2 Doshomachi 3-Chome, Chuo-ku, Osaka 540-8605, Japan). The enzyme inhibition was measured spectrophotometrically at pH 6.9 and at 37° C. using 0.7 mM p-nitrophenyl α-D glucopyranoside (PNP-G) as a substrate and 500 m units/mL enzyme, in 50 mM sodium phosphate buffer containing 100 mM NaCl. […] The increment in absorption at 400 nm, due to the hydrolysis of PNP-G by α-glucosidase, was monitored continuously on microplate spectrophotometer (Spectra Max Molecular Devices, USA).

[8] = test system: multidrug-resistant (MDR) clinically relevant bacteria; settings: cited from earlier work
[9] = autoxidation and FeCl3- and EDTA-mediated oxidation of linoleic acid; cited from earlier work

Row | Compound | Inhibition zone, SF (Shigella flexneri) [1] | activity against Pseudomonas aeruginosa (in words) [2] | Inhibition zone, PA (Pseudomonas aeruginosa) [2] | Inhibition zone, SA (Staphylococcus aureus) [3] | Inhibition zone, BS (Bacillus subtilis) [4] | Inhibition zone, EC (Escherichia coli) [5] | activity against Salmonella typhi (in words) [6] | Inhibition zone, ST (Salmonella typhi) [6] | IC50 [7] | antibacterial activity against Staphylococcus aureus (in words) [3] | antibacterial activity against MDR bacteria (in words) [8] | antioxidant properties (in words) [9] | α-glucosidase inhibition (in words) [7]
1 | CC1(C)CC[C@]2(C(=O)O)CC[C@]3(C)C(=CC[C@@H]4[C@@]5(C)C[C@@H](O)[C@H](O)[C@@](C)(CO)[C@@H]5CC[C@]43C)[C@@H]2C1 [Compound 12, arjunolic acid] | 13 mm | significant activity | 12 mm | 15 mm | 15 mm | 9 mm | significant activity | 16 mm |  |  |  |  | 
2 | C=C(C)[C@@H]1CC[C@]2(CO)CC[C@]3(C)[C@H](CC[C@@H]4[C@@]5(C)CC[C@H](O)C(C)(C)[C@@H]5CC[C@]43C)[C@@H]12 [Compound 15, betulin] | 15 mm | significant activity | 18 mm |  |  |  | significant activity | 16 mm |  |  |  |  | 
3 | Myrtucommulone-D [Compound 1] | 12 mm |  |  | 24 mm | 15 mm |  |  | 15 mm | 84.3 ± 3 µM | significant antibacterial activity |  |  | 
4 | C[C@H]1[C@H](C)CC[C@]2(C(=O)O)CC[C@]3(C)C(=CC[C@@H]4[C@@]5(C)C[C@@H](O)[C@H](O)C(C)(C)[C@@H]5CC[C@]43C)[C@H]12 [Compound 11, corosolic acid] | 15 mm | significant activity | 17 mm |  | 15 mm |  | significant activity | 17 mm |  |  |  |  | 
5 | CC(C)C(=O)c1c(O)c([C@H](C2=C(O)C(C)(C)C(=O)C(C)(C)C2=O)C(C)C)c(O)c([C@H](C2=C(O)C(C)(C)C(=O)C(C)(C)C2=O)C(C)C)c1O [Myrtucommulone-A] |  |  |  |  |  |  |  |  |  |  | significant antibacterial activity | powerful antioxidant properties | 
6 | CC(=O)c1c(O)c(C)c(O)c2c1OC1=CC(=O)C(C(C)=O)C(=O)C12C (centres unmarked) [Compound 9, usnic acid] | 15 mm |  | 17 mm | 15 mm | 16 mm | 11 mm |  | 17 mm |  |  |  |  | 
7 | Cc1c(O)c(C(=O)C(C)C)c(O)c(C(C2=C(O)C(C)(C)C(=O)C(C)(C)C2=O)C(C)C)c1O (centres unmarked) [semimyrtucommulone] |  |  |  |  |  |  |  |  |  |  | less active | powerful antioxidant properties | 
8 | C[C@@H](O)[C@H]1C(=O)N2C(C(=O)O)=C(SCCN=CN)C[C@H]12 [Imipenem, reference compound] | 27 mm |  | 24 mm | 33 mm | 33 mm | 30 mm |  | 25 mm |  |  |  |  | 
9 | CC[C@H](CC[C@@H](C)[C@H]1CC[C@H]2[C@@H]3CC=C4C[C@@H](O)CC[C@]4(C)[C@H]3CC[C@]12C)C(C)C [Compound 7, β-sitosterol] |  | significant activity | 16 mm | 15 mm | 12 mm |  | significant activity | 18 mm |  |  |  |  | 
10 | CC1(C)CC[C@]2(C(=O)O)CC[C@]3(C)C(=CC[C@@H]4[C@@]5(C)CC[C@H](O)C(C)(C)[C@@H]5CC[C@]43C)[C@@H]2C1 [Compound 14, oleanolic acid] | 10 mm | significant activity | 16 mm |  | 15 mm |  | significant activity | 16 mm |  |  |  |  | 
11 | CC(C)C(=O)c1c(O)c2c(c3c1OC1=C(C(=O)C(C)(C)C(=O)C1(C)C)[C@@H]3C(C)C)OC1=C(C(=O)C(C)(C)C(=O)C1(C)C)[C@@H]2C(C)C [Compound 2, Myrtucommulone-E] | 10 mm |  | 13 mm |  | 15 mm | 10 mm |  | 17 mm | 46.6 µM | significant antibacterial activity |  |  | 
12 | CC1(C)CC[C@]2(CO)CC[C@]3(C)C(=CC[C@@H]4[C@@]5(C)CC[C@H](O)C(C)(C)[C@@H]5CC[C@]43C)[C@@H]2C1 [Compound 13, erythrodiol] |  | significant activity | 12 mm | 11 mm | 17 mm | 16 mm | significant activity | 19 mm |  |  |  |  | 
13 | CC(C)C(=O)c1c(O)c(C(C2=C(O)C(C)(C)C(=O)C(C)(C)C2=O)C(C)C)c(O)c2c1OC1=C(C(=O)C(C)(C)C(=O)C1(C)C)C2C(C)C (centres unmarked) [Compound 3, Myrtucommulone-C] |  |  |  |  |  |  |  |  | 35.4 ± 1.15 µM |  |  |  | highest activity
14 | CC(C)C(=O)c1c(O)cc(O)c2c1OC1=C(C(=O)C(C)(C)C(=O)C1(C)C)C2C(C)C (centres unmarked) [Compound 4, Myrtucommulone-B] |  |  |  |  |  |  |  |  | 40 ± 1 µM |  |  |  | strong inhibition
